This passage reports CLhep predicted, logCL and CL results from ChEMBL document CHEMBL1137707, “First-principle, structure-based prediction of hepatic metabolic clearance values in human” (Eur J Med Chem, 2009).

Series [1] in a line: (§1) Hepatic clearance in human hepatocytes in absence of fetal calf serum.
The next series relates to Hepatocyte. The series is described as §1. To be noted: hepatocytes.

SMILES strings stand for the structures.

`COc1ccc2c(c1)c(CC(=O)O)c(C)n2C(=O)c1ccc(Cl)cc1` [INDOMETHACIN]: the CLhep predicted in series [1] (human hepatocytes) is 2.24 mL/min/kg. The compound also showed a logCL in the series on Hepatocyte of 0.3502. In the same order, the values of `COc1ccc([C@@H]2Sc3ccccc3N(CCN(C)C)C(=O)[C@@H]2OC(C)=O)cc1` [DILTIAZEM] are 12.8 mL/min/kg and 1.1072. In the same order, the values of `CC(C)(O)c1ccccc1CC[C@@H](SCC1(CC(=O)O)CC1)c1cccc(/C=C/c2ccc3ccc(Cl)cc3n2)c1` [MONTELUKAST] are 1.27 mL/min/kg and 0.1038. In the series with Hepatocyte, `CCCCC1=NC2(CCCC2)C(=O)N1Cc1ccc(-c2ccccc2-c2nnn[nH]2)cc1` [IRBESARTAN] gave a CL of 3.85 mL/min/kg and a logCL of 0.5855. Take `Cc1ccc(C)c(OCCCC(C)(C)C(=O)O)c1` [GEMFIBROZIL]: the CLhep predicted in series [1] (hepatocytes) was 3.09 mL/min/kg. Moreover, the logCL in the series with Hepatocyte is reported as 0.49. As to `CN1C(=O)CN=C(c2ccccc2)c2cc(Cl)ccc21` [DIAZEPAM], the logCL in the series on Hepatocyte is on record as -0.3665. Compound `CCCc1nn(C)c2c(=O)[nH]c(-c3cc(S(=O)(=O)N4CCN(C)CC4)ccc3OCC)nc12` came in with a logCL with Hepatocyte of 0.7782. Consider `CC(C)(C)NC[C@H](O)COc1nsnc1N1CCOCC1` [TIMOLOL], for which the CLhep predicted in series [1] (hepatocytes) was 9.17 mL/min/kg. For the same compound, the logCL with Hepatocyte was found to be 0.9624. In the series with Hepatocyte, `CN(C)CCCN1c2ccccc2Sc2ccc(Cl)cc21` [CHLORPROMAZINE] yielded a CL of 8.6 mL/min/kg and a logCL of 0.9345.

On to `Cc1c(C)c2c(c(C)c1O)CCC(C)(COc1ccc(CC3SC(=O)NC3=O)cc1)O2` (stereo unspecified) [TROGLITAZONE], for which the CLhep predicted in series [1] (human hepatocytes) is 9 mL/min/kg. In the series with Hepatocyte, this compound displayed a logCL of 0.9542. In the case of `CN1C(C(=O)Nc2ccccn2)=C(O)c2sccc2S1(=O)=O` [TENOXICAM], the CLhep predicted in series [1] (hepatocytes) is 0.073 mL/min/kg. Besides, in the series on Hepatocyte, the logCL was -1.1367. As to `O=C1CC2(CCCC2)CC(=O)N1CCCCN1CCN(c2ncccn2)CC1` [BUSPIRONE], the CLhep predicted in series [1] (human hepatocytes) was 19.2 mL/min/kg. Also, the logCL in the series with Hepatocyte is listed as 1.2833.

Take `Cc1ncc2n1-c1ccc(Cl)cc1C(c1ccccc1F)=NC2` [MIDAZOLAM]: the CLhep predicted in series [1] (hepatocytes) was 6.6 mL/min/kg. In the series on Hepatocyte, this compound came in with a logCL of 0.8195.

The compound `CCOc1ccc(NC(C)=O)cc1` [PHENACETIN] registered a logCL in the series on Hepatocyte of 1.2833.

Turning to `CC(=O)CC(c1ccccc1)c1c(O)c2ccccc2oc1=O` (stereo unspecified) [WARFARIN], the CLhep predicted in series [1] (human hepatocytes) is 0.16 mL/min/kg. Moreover, in the series with Hepatocyte, the logCL was -0.7959. The like results for `CC(C)c1nc(CN(C)C(=O)N[C@H](C(=O)N[C@@H](Cc2ccccc2)C[C@H](O)[C@H](Cc2ccccc2)NC(=O)OCc2cncs2)C(C)C)cs1` [RITONAVIR] were, in that order, 1.2 mL/min/kg and 0.0792. As to `CN1C2CCCC1CC(NC(=O)c1nn(C)c3ccccc13)C2` (stereo unspecified) [GRANISETRON], the CLhep predicted in series [1] (human hepatocytes) is 11 mL/min/kg. Besides, the logCL in the series on Hepatocyte is on record as 1.0414. In the same order, the values of `Cc1cn([C@H]2C[C@H](N=[N+]=[N-])[C@@H](CO)O2)c(=O)[nH]c1=O` [ZIDOVUDINE] are 12.4 mL/min/kg and 1.0934. On to `COCCc1ccc(OCC(O)CNC(C)C)cc1` (stereo unspecified) [METOPROLOL], for which the CLhep predicted in series [1] (human hepatocytes) is 12.2 mL/min/kg. The compound also yielded a logCL in the series on Hepatocyte of 1.0846. Take `O=C(O)c1cc(-c2ccc(F)cc2F)ccc1O` [DIFLUNISAL]: the CLhep predicted in series [1] (hepatocytes) is 0.18 mL/min/kg. Also, the logCL in the series on Hepatocyte is on record as -0.7447. The like results for `O=C(O)Cc1ccccc1Nc1c(Cl)cccc1Cl` [DICLOFENAC] were, in that order, 7.33 mL/min/kg and 0.8651. On to `Cc1nccn1CC1CCc2c(c3ccccc3n2C)C1=O` (stereo unspecified) [ONDANSETRON], for which the CLhep predicted in series [1] (human hepatocytes) was 5.9 mL/min/kg. This compound also gave a logCL in the series on Hepatocyte of 0.7709. In the case of `C[C@]12C=CC(=O)C=C1CC[C@@H]1[C@@H]2[C@@H](O)C[C@@]2(C)[C@H]1CC[C@]2(O)C(=O)CO` [PREDNISOLONE], in series [1] (human hepatocytes), the CLhep predicted is 8.7 mL/min/kg. Also, the logCL with Hepatocyte was determined as 0.9395. Consider `CCc1cccc2c3c([nH]c12)C(CC)(CC(=O)O)OCC3` (stereo unspecified) [ETODOLAC], for which, in series [1] (human hepatocytes), the CLhep predicted was 1.31 mL/min/kg. Besides, the logCL in the series on Hepatocyte turned out to be 0.1173. `COc1ccccc1OCCNCC(O)COc1cccc2[nH]c3ccccc3c12` (stereo unspecified) [CARVEDILOL]: in series [1] (hepatocytes), the CLhep predicted is 8.7 mL/min/kg. Also, the logCL with Hepatocyte worked out at 0.9395. As for `Cn1c(=O)c2[nH]cnc2n(C)c1=O.O` [THEOPHYLLINE], the CLhep predicted in series [1] (human hepatocytes) is 0.65 mL/min/kg. In the series on Hepatocyte, this compound came in with a logCL of -0.1871.

On to `O=C1Nc2ccc(Cl)cc2C(c2ccccc2Cl)=NC1O` (stereo unspecified) [LORAZEPAM], for which the CLhep predicted in series [1] (human hepatocytes) is 1.1 mL/min/kg. The same compound gave a logCL in the series on Hepatocyte of 0.0414. In the series on Hepatocyte, `CC(C(=O)O)c1cccc(Oc2ccccc2)c1` (stereo unspecified) [FENOPROFEN] gave a logCL of 0.2279. Consider `C=CCN1CC[C@]23c4c5ccc(O)c4O[C@H]2C(=O)CC[C@@]3(O)[C@H]1C5` [NALOXONE], for which the CLhep predicted in series [1] (human hepatocytes) is 19.5 mL/min/kg. This compound had a logCL with Hepatocyte of 1.29. Regarding `CCCCNC(=O)NS(=O)(=O)c1ccc(C)cc1` [TOLBUTAMIDE], the CLhep predicted in series [1] (hepatocytes) is 0.3 mL/min/kg. Further, the logCL with Hepatocyte is -0.5229. `CCN(CC)CC(=O)Nc1c(C)cccc1C` [LIDOCAINE] showed a logCL in the series with Hepatocyte of 1.1761. On to `Cn1c(=O)c2c(ncn2C)n(C)c1=O` [CAFFEINE], for which the CLhep predicted in series [1] (human hepatocytes) is 1.4 mL/min/kg. This compound showed a logCL with Hepatocyte of 0.1461.

With `C[C@H]1C[C@@H]2[C@H]([C@@H](O)C[C@@]3(C)[C@H]2CC[C@]3(O)C(=O)CO)[C@@]2(C)C=CC(=O)C=C12` [METHYLPREDNISOLONE], the CLhep predicted in series [1] (human hepatocytes) was 7.5 mL/min/kg. In the series with Hepatocyte, this compound displayed a logCL of 0.8751.
